Test results taken from paper PMC7002685, “Inhibition of vascular calcification by inositol phosphates derivatized with ethylene glycol oligomers” (Nature Communications, 2020).
Several values for one entry are separate records, joined by “and”; a condition that tells them apart may be missing. Equal entries are not always repeated.

Experiments:
[1] = test system: THP-1-derived macrophages; experiment: Macrophage viability, compound without CPP2; type: cell-based, human
Experimental: Cell viability was assessed using the MTS assay (CellTiter 96® Aqueous One Solution Cell Proliferation Assay, G3580; Promega, Madison, WI, USA) according to the manufacturer’s instructions. Assays using combined treatment of CPPs or CaP and test compounds were performed in 24-well plates using 20,000 cells per well and assays using test compounds only were performed in a 96-well plate format with a seeding density of 10,000 (VSMC) or 50,000 (THP-1) cells per well, respectively. For controls, cells were treated with respective complete medium only and results were calculated as % of control. […]
(n = 3 independent experiments).

[2] = PK after sub-chronic s.c. treatment (7 days); type: in vivo, male Sprague-Dawley rats; settings: for plasma concentration: unit not given
Experimental: To study PK in healthy animals, male Sprague-Dawley rats (Harlan, Correzzana, Italy) were housed up to three per cage with free access to water and standard chow (pellets 12 mm, global diet 2018 certificate, Mucedola, Srl, Settimo Milanese, Italy), and submitted to a 12-h light/dark cycle. Animals were administered i.v. 10 mg/kg of (OEG2)2-IP4 in saline solution i.v. (30 s bolus, 5 mL/kg) and s.c. (5 mL/kg), respectively, in three animals per route and treatment. […] Plasma calcium concentration was determined in pre-dose samples and in t = 30 min samples of both acute and chronic treatments using the calcium colorimetric assay. Blood samples of 100 µL were drawn at several time points from the caudal vein, centrifuged at (3000 × g, 4 °C, 10 min) and stored at −80 °C until analysis by liquid chromatography–tandem mass spectrometry (LC-MS/MS).

[3] = In vitro ionized human serum calcium; type: physicochemical
Experimental: One potential side effect of inositol phosphate-based drugs is toxicity due to chelation of ionized serum calcium. […] At 100 µM (OEG2)2-IP4, 96 ± 2% of control serum-ionized calcium was measured.
To assess reduction in ionized serum calcium, increasing concentrations of test compounds were incubated in human serum (Human AB serum, off-the-clot, HSER-ABPM; LuBioScience GmbH, Zurich, Switzerland) at RT and free ionized calcium levels were measured subsequently by the o-cresolphthalein method using the calcium colorimetric assay.

bone = experiment: Tibial bone histomorphometry, adenine model; type: in vivo, male Wistar rats
Experimental: (§1) At sacrifice the left tibia of animals of the rat model with dietary adenine/high-phosphate-induced uremia and VC was collected, fixed with 70% v/v EtOH and embedded in methyl methacrylate. The trabecular bone compartment is known to be the most metabolic active i.e. actively re-structured bone compartment in CKD. Therefore, histomorphometric and micro-computed tomography (µCT) analysis of bone was performed on the trabecular compartment. Tibial sections were Goldner-stained for histomorphometric analysis of the proximal metaphysis using the AxioVision Release 4.5 software, as described previously5. The total bone area (as percentage of total tissue area), osteoid area (as percentage of total bone area), and mineralized bone area (as percentage of total tissue area) were calculated from the primary measurements. Images of osteoclast and osteoblast were taken (Leica

Cyclooxygenase COX-1 = molecular target: T1, Cyclooxygenase COX-1 (Homo sapiens, UniProt P23219); experiment: Off-target 116020; type: biochemical
T1 construct: purchased Eurofins Panlabs Discovery Services Taiwan, Ltd
Experimental: (§2) The potential off-target activity of 10 µM (OEG2)2-IP4 was assessed against a panel of 87 enzymes, receptors, or ion channels that are used in standard safety pharmacology screens.
(§3) 3.2. Off-target screening assay
(§4) The experiments were conducted by a contract research organization (Eurofins Panlabs Discovery
(§5) Services Taiwan, Ltd.) and details on the respective assays can be retrieved via the catalog number
(§6) provided in Supplementary Table 11 from the company’s webpage
(§7) (https://www.eurofinsdiscoveryservices.com/). […]

[4] = test system: Calcium Channel L-Type, Dihydropyridine; experiment: Off-target 214600; type: binding, Rat; settings: 10 µM
Experimental: as §2, §3, §4, §5, §6, §7

[5] = test system: Calcium Channel L-Type, Phenylalkylamine; experiment: Off-target 215000; type: binding, Rat; settings: 10 µM
Experimental: as §2, §3, §4, §5, §6, §7

Calcium Channel N-Type = molecular target: T2, Calcium Channel N-Type (Rattus norvegicus, UniProt Q02294); experiment: Off-target 216000; type: binding
T2 construct: purchased Eurofins Panlabs Discovery Services Taiwan, Ltd
Experimental: as §2, §3
(§8) The experiments were conducted by a contract research organization (Eurofins Panlabs Discovery Services Taiwan, Ltd.) and details on the respective assays can be retrieved via the catalog number provided in Supplementary Table 11 from the company’s webpage
as §7
as §1, with “described previously5. The total bone area (as percentage of total tissue area), osteoid area (as percentage of total bone area), and mineralized bone area (as percentage of total tissue area) were calculated from the primary measurements. Images of osteoclast and osteoblast were taken (Leica” left out
(§9) described previously5. […]

Chemokine CXCR2 (IL-8RB) = molecular target: T3, Chemokine CXCR2 (IL-8RB) (Homo sapiens, UniProt P25025); experiment: Off-target 244500; type: binding
T3 construct: purchased Eurofins Panlabs Discovery Services Taiwan, Ltd
T3 sequence (P25025 whole entry): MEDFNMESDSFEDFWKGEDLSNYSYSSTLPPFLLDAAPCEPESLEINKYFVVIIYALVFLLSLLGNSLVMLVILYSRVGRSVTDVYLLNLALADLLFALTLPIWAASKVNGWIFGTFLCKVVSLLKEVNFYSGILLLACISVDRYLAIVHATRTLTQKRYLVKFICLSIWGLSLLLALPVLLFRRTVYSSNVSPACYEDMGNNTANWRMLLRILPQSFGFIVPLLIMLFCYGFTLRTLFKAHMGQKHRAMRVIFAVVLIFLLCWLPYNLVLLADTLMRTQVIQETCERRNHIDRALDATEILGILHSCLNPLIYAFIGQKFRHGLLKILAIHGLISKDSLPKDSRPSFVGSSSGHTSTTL
Experimental: as §2, §3, §8, §7
as §1, with “described previously5. The total bone area (as percentage of total tissue area), osteoid area (as percentage of total bone area), and mineralized bone area (as percentage of total tissue area) were calculated from the primary measurements. Images of osteoclast and osteoblast were taken (Leica” left out
as §9

Estrogen ERα = molecular target: T4, Estrogen ERα (Homo sapiens, UniProt P03372); experiment: Off-target 226010; type: binding
T4 construct: purchased Eurofins Panlabs Discovery Services Taiwan, Ltd
T4 sequence (P03372 whole entry): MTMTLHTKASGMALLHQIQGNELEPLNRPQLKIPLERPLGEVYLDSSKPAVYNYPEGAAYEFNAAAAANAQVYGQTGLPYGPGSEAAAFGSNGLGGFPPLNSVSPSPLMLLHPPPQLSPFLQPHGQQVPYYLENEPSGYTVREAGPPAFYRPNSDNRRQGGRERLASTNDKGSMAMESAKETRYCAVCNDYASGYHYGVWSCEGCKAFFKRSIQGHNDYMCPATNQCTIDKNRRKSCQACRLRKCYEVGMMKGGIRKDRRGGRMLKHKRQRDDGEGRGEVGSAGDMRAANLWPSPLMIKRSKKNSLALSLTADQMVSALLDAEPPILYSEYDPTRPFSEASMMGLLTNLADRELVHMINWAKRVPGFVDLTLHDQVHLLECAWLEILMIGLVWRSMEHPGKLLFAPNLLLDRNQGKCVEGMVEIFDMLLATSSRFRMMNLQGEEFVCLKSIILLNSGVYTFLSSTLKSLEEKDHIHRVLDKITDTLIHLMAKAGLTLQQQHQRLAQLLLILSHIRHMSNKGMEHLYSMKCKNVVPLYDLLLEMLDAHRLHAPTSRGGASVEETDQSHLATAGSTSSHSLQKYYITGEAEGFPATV
Experimental: as §2, §3, §8, §7
as §1, with “described previously5. The total bone area (as percentage of total tissue area), osteoid area (as percentage of total bone area), and mineralized bone area (as percentage of total tissue area) were calculated from the primary measurements. Images of osteoclast and osteoblast were taken (Leica” left out
as §9

GABAB1A = molecular target: T5, GABAB1A (Homo sapiens, UniProt Q9UBS5); experiment: Off-target 228610; type: binding
T5 construct: purchased Eurofins Panlabs Discovery Services Taiwan, Ltd
T5 sequence (Q9UBS5 15-961 limits assumed): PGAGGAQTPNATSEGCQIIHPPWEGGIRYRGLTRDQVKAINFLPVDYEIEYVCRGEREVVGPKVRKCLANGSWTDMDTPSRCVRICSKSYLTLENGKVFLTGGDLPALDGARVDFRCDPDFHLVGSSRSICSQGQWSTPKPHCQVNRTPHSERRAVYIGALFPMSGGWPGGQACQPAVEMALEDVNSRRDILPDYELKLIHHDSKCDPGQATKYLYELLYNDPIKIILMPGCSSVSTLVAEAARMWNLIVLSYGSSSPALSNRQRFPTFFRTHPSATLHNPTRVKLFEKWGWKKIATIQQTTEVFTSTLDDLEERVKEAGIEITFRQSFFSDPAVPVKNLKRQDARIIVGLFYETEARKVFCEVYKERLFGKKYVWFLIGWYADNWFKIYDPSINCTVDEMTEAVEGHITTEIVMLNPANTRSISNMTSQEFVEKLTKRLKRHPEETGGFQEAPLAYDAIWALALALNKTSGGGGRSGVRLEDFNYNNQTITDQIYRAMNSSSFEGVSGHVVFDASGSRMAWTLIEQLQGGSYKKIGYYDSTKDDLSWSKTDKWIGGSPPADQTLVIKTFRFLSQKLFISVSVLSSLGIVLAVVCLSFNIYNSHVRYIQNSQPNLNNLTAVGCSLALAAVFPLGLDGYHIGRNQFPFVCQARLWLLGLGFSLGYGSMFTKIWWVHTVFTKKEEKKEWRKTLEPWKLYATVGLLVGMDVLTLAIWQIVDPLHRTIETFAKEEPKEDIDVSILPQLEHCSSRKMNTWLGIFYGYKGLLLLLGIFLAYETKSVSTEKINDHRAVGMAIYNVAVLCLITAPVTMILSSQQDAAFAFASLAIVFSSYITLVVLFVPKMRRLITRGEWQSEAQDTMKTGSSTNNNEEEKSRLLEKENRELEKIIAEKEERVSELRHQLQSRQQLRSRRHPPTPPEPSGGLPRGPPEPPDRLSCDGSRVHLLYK
T5 sequence (O75899 42-941 partner): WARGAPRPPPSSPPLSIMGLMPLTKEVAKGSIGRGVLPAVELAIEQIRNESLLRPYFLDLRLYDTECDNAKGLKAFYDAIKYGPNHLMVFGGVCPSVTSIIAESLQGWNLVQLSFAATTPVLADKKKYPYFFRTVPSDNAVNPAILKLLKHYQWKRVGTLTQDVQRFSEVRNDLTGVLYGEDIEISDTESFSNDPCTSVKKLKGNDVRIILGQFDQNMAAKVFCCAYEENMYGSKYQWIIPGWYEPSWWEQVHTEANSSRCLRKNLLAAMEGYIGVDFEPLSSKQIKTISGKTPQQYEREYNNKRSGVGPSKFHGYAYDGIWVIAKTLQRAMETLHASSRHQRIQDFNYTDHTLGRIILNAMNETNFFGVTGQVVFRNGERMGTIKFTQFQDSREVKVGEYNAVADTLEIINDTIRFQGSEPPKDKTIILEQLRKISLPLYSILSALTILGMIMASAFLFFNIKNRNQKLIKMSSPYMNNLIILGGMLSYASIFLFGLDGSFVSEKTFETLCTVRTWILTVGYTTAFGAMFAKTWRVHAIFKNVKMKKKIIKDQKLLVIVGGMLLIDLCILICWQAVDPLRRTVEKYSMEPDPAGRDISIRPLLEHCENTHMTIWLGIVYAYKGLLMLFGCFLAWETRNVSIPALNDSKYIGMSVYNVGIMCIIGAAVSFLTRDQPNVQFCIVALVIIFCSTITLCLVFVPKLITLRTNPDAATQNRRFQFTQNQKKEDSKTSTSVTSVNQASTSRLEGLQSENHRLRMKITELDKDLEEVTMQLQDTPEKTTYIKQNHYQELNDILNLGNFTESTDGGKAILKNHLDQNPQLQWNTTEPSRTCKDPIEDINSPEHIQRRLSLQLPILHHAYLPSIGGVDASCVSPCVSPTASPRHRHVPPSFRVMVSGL
Experimental: as §2, §3, §4, §5, §6, §7

Glutamate, NMDA, Agonism = experiment: Off-target 232810; type: binding, Rat; settings: 10 µM
Experimental: as §2, §3, §8, §7
as §1, with “described previously5. The total bone area (as percentage of total tissue area), osteoid area (as percentage of total bone area), and mineralized bone area (as percentage of total tissue area) were calculated from the primary measurements. Images of osteoclast and osteoblast were taken (Leica” left out
as §9

[6] = test system: Glutamate, NMDA, Polyamine; experiment: Off-target 234000; type: binding, Rat; settings: 10 µM
Experimental: as §2, §3, §4, §5, §6, §7

[7] = test system: Glycine, Strychnine-Sensitive; experiment: Off-target 239000; type: binding, Rat; settings: 10 µM
Histamine H2 = molecular target: T6, Histamine H2 (Homo sapiens, UniProt P25021); experiment: Off-target 239710; type: binding
T6 construct: purchased Eurofins Panlabs Discovery Services Taiwan, Ltd
T6 sequence (P25021 whole entry): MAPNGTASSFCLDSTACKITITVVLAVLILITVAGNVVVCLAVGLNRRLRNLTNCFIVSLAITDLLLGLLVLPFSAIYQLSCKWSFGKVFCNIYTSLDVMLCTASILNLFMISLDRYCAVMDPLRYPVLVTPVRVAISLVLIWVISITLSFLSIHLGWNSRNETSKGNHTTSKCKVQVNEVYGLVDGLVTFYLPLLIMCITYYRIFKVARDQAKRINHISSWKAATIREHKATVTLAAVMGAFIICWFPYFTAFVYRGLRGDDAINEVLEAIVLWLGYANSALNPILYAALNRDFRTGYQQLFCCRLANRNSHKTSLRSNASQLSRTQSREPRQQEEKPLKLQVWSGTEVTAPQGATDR
Experimental: as §2, §3, §8, §7
as §1, with “described previously5. The total bone area (as percentage of total tissue area), osteoid area (as percentage of total bone area), and mineralized bone area (as percentage of total tissue area) were calculated from the primary measurements. Images of osteoclast and osteoblast were taken (Leica” left out
as §9

PPARγ = molecular target: T7, PPARγ (Homo sapiens, UniProt P37231); experiment: Off-target 267500; type: binding
T7 construct: purchased Eurofins Panlabs Discovery Services Taiwan, Ltd
T7 sequence (P37231 whole entry): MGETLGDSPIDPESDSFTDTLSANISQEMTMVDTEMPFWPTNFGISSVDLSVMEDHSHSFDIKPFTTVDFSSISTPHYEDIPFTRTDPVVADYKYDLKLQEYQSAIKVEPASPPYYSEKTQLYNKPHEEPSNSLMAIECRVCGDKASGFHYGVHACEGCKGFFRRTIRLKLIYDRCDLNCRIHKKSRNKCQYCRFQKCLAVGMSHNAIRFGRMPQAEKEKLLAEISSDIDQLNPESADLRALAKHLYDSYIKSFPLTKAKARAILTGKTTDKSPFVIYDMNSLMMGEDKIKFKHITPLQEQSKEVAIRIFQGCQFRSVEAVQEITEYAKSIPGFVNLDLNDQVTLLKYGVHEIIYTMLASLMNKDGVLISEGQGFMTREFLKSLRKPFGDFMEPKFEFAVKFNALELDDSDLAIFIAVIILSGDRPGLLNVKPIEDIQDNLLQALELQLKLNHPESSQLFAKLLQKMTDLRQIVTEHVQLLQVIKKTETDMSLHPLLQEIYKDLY
Experimental: as §2, §3, §8, §7
as §1, with “described previously5. The total bone area (as percentage of total tissue area), osteoid area (as percentage of total bone area), and mineralized bone area (as percentage of total tissue area) were calculated from the primary measurements. Images of osteoclast and osteoblast were taken (Leica” left out
as §9

[8] = molecular target: T8, Serotonin (5-Hydroxytryptamine) 5-HT1B (Homo sapiens, UniProt P28222); experiment: Off-target 271230; type: binding
T8 construct: purchased Eurofins Panlabs Discovery Services Taiwan, Ltd
T8 sequence (P28222 whole entry): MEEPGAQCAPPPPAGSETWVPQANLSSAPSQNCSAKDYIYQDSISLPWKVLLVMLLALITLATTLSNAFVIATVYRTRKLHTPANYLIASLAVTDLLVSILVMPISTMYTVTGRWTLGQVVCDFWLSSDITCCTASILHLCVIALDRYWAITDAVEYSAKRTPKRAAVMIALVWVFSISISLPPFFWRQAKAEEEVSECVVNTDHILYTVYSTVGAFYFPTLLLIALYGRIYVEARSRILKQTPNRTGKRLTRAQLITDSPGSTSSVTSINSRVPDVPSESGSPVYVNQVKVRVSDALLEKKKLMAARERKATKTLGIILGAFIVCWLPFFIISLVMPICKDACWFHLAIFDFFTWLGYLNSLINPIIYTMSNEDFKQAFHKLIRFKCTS
Experimental: as §2, §3, §8, §7
as §1, with “described previously5. The total bone area (as percentage of total tissue area), osteoid area (as percentage of total bone area), and mineralized bone area (as percentage of total tissue area) were calculated from the primary measurements. Images of osteoclast and osteoblast were taken (Leica” left out
as §9

[9] = molecular target: T9, Serotonin (5-Hydroxytryptamine) 5-HT2C (Homo sapiens, UniProt P28335); experiment: Off-target 271800; type: binding
T9 construct: purchased Eurofins Panlabs Discovery Services Taiwan, Ltd
T9 sequence (P28335 33-458): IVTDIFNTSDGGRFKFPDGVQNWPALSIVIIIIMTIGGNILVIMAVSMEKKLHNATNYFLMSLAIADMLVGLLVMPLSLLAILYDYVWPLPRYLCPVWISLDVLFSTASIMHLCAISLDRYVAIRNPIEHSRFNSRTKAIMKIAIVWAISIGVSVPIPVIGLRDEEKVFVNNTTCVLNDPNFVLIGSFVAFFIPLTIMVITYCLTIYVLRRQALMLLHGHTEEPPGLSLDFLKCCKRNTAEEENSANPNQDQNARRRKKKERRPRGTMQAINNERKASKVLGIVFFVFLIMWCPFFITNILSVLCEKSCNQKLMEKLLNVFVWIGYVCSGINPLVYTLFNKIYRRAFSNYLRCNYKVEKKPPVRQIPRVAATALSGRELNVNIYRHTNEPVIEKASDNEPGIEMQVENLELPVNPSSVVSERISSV
Experimental: as §2, §3, §8, §7
as §1, with “described previously5. The total bone area (as percentage of total tissue area), osteoid area (as percentage of total bone area), and mineralized bone area (as percentage of total tissue area) were calculated from the primary measurements. Images of osteoclast and osteoblast were taken (Leica” left out
as §9

[10] = uremic rats, 4 h i.v. infusion of 50 mg/kg; cited from earlier work

## COCCOCCO[C@@H]1[C@@H](OP(=O)(O)O)[C@H](OCCOCCOC)[C@@H](OP(=O)(O)O)[C@@H](OP(=O)(O)O)[C@H]1OP(=O)(O)O [(OEG2)2-IP4, 4,6-Di-O-(methoxy-diethyleneglycol)-myo-inositol-1,2,3,5-tetrakis(phosphate)]
[1]
  macrophage viability: does not alter viability
[2]; 50 mg/kg for 7 days
  accumulation following repeated s.c. administration: No significant accumulation
[2]; 50 mg/kg/day s.c. sub-chronic (7 days), time 0
  plasma concentration: 0.18 and 0.24 and 0.25 and 0.16
[2]; 50 mg/kg/day s.c. sub-chronic, time 0.5
  plasma concentration: 82.39 and 90 and 95.45 and 69.57
[2]; 50 mg/kg/day s.c. sub-chronic, time 1
  plasma concentration: 64.18 and 72.74 and 67.54 and 66.21
[2]; 50 mg/kg/day s.c. sub-chronic, time 2
  plasma concentration: 31.83 and 38.97 and 22.86 and 35.06
[2]; 50 mg/kg/day s.c. sub-chronic, time 8
  plasma concentration: 0.78 and 0.86 and 0.76 and 0.85
[2]; 50 mg/kg/day s.c. sub-chronic, time 24
  plasma concentration: 0.07 and 0.13 and 0.08
[3]
  concentration from which difference to IP6 in decrease of serum-ionized calcium became significant: ≥ 600 µM
bone; 5, 15, 50 mg/kg/day
  % bone area compared with vehicle: significantly higher
bone; rat, in vivo
  osteoblast and osteoclast morphology: not impacted
bone; treatment groups
  osteoid area: distinct increase in the osteoid area
bone; various doses tested
  mineralized trabecular bone area: unchanged mineralized trabecular bone area
Cyclooxygenase COX-1
  inhibition at 10 µM: -2%
[4]
  % Inhibition: 1%
[5]
  % Inhibition: -4%
Calcium Channel N-Type
  inhibition at 10 µM: 5%
Chemokine CXCR2 (IL-8RB)
  inhibition at 10 µM: 6%
Estrogen ERα
  inhibition at 10 µM: -1%
GABAB1A
  inhibition at 10 µM: -7%
Glutamate, NMDA, Agonism
  % Inhibition: 7%
[6]
  % Inhibition: 17%
[7]
  % Inhibition: -2%
Histamine H2
  inhibition at 10 µM: -6%
PPARγ
  inhibition at 10 µM: 2%
[8]
  inhibition at 10 µM: -4%
[9]
  inhibition at 10 µM: -5%

## O=P(O)(O)O[C@H]1[C@H](OP(=O)(O)O)[C@@H](OP(=O)(O)O)[C@H](OP(=O)(O)O)[C@@H](OP(=O)(O)O)[C@H]1OP(=O)(O)O [IP6, myo-Inositol hexakisphosphate]
[10]
  reduction in serum calcium levels: 17%
